Experimental data as given in patent US20090099135A1, “Pest control compositions and methods” (priority 2007, published 2009).

Assays:
TyrR = target: T1, TyrR (Drosophila melanogaster, UniProt P22270); experiment: TyrR competition binding assay (% binding inhibition)
T1 sequence (P22270 27-601): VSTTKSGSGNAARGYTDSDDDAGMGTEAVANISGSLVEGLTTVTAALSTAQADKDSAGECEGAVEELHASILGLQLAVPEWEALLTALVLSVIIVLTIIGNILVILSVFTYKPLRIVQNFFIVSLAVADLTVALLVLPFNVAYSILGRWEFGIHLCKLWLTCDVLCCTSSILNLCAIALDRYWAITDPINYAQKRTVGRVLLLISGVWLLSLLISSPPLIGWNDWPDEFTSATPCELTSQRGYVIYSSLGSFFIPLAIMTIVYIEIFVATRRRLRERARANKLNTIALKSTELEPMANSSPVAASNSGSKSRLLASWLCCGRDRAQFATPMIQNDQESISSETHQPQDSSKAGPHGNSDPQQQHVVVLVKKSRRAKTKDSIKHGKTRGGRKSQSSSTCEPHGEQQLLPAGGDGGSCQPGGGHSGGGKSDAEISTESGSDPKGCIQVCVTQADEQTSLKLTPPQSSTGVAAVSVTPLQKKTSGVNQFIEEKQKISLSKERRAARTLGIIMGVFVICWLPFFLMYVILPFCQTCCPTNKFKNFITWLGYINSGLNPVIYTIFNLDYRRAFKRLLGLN
Procedure: When the chemical(s) and compound(s) are combined to provide the compositions of the present invention, there is a synergistic effect.
(§1) To determine the affinities of several ligands for TyrR, increasing concentration of several compounds are tested for their ability to inhibit binding of about 2 nM ^3H-tyramine. For both saturation and inhibition assays total and non-specific binding is determined in the absence and presence of about 10 μM unlabeled-tyramine, respectively. Receptor binding reactions are incubated for about 1 hour at room temperature (RT) in restricted light. Reactions are terminated by filtration through GF/C filters (VWR), which have been previously soaked in about 0.3% polyethyleneimine (PEI). The filters are washed one time with about 4 ml ice cold Tris buffer and air dried before retained radioactivity is measured using LSC. Binding data is analyzed by curve fitting (GraphPad software, Prism).

tyramine receptor = target: T2, tyramine receptor (Drosophila melanogaster, UniProt P22270); experiment: Whole cell 3H-tyramine binding in Schneider cells transfected with tyramine receptor
T2 construct: oligonucleotides that are used to amplify the open reading frame of the Drosophila tyramine receptor (TyrR); expressed in transfected cells
T2 sequence (P22270 27-601): T1 sequence (P22270 27-601)
Procedure: Cells transfected with the tyramine receptor (about 1×10^6 cells/ml) are cultured in each well of a multi-well plate. About 24 hours after plating the cells, the medium is withdrawn and replaced with about 1 ml insect saline (about 23 C). Different concentrations of ^3H-tyramine (about 0.1-10 nM) are added with and without about 10 μM unlabeled tyramine and incubated at room temperature (RT). After about a 20 minute incubation, the reaction is stopped by rapid aspiration of the saline and at least one wash with about 2 ml insect saline (about 23 C). Cells are solubilized in about 300 μl 0.3M NaOH for about 20 min at RT. Solubilized cells are transferred into about 4 ml Liquid Scintillation Solution (LSS) and vigorously vortexed for about 30 sec before counting the radioactivity using a Liquid Scintillation P-counter (Beckman, Model LS1801) (LSC).
Receptor specific binding data is expressed as fmol specific binding per 1×10^6 cells and measured as a function of ^3H-tyramine concentration. Specific binding values are calculated as the difference between values in the absence of and values in the presence of about 10 μM unlabeled tyramine. The maximum specific binding occurs at about 5 nM ^3H-tyramine.

Culex quinquefasciatus = experiment: Repellency effect against Culex quinquefasciatus (biting counts on volunteers' legs); format: in vivo
Procedure: The repellency of exemplary compositions of the present invention are compared to the repellency of their individual ingredients, and to a non-treated control. Southern house mosquitoes, Culex quinquefasciatus, are obtained as test organisms. Multiple human evaluators test each treatment in a replicated experiment. Experimentation is conducted in a laboratory using multiple-chambered, plexiglass modules, each chamber stocked with about 2-10 day-old colony-reared female mosquitoes. The modules are equipped with sliding doors to expose the mosquitoes to the legs of three volunteers. Treatments are applied at about 28.6 μl to 12 cm^2 rectangular sections of skin located directly beneath the chamber openings. Each volunteer conducts 2-minute biting counts for each treatment at five time intervals: 0, 1, 2, 4 & 6 hours post-treatment. New mosquitoes are stocked into the chamber for each time interval. Ambient temperature and humidity data is recorded with a HOBO datalogger. Percent repellency is determined according to the following formula: Control−Treatment/Control X 100.

[1] = Interim field plot ratings, South Georgia: flower damage rating; format: in vivo; settings: rate not given; 1 wk after treatment
aphids (on cotton) = experiment: Interim field plot ratings, South Georgia: aphids on cotton; format: in vivo; settings: rate not given; 1 wk after treatment
Aedes aegypti = experiment: Pesticidal effect (KD) against Aedes aegypti; format: in vivo
Procedure: With reference to FIG. 4A, the pesticidal effect against Aedes aegypti was determined for Blend 23 (labeled “HL1”) and the composition including CL and Blend 23.
Similarly, with reference to FIG. 4B, the pesticidal effect against Aedes aegypti was determined for Blend 23 (labeled “HL1”) and the composition including CL and Blend 23.
Similarly, with reference to FIG. 4C, the pesticidal effect against Aedes aegypti was determined for Blend 23 (labeled “HL1”) and the composition including Imidacloprid and Blend 23.

Thrips (on cotton) = experiment: Interim field plot ratings, South Georgia: thrips on cotton; format: in vivo; settings: rate not given; 1 wk after treatment
Periplaneta americana = experiment: Pesticidal effect (mortality) against Periplaneta americana; format: in vivo; settings: Blend 23 5%
Procedure: With reference to FIG. 6A, the pesticidal effect against Periplaneta americana was determined for Blend 23 (labeled “HL1”) and the composition including CL and Blend 23.
With reference to FIG. 6B, the pesticidal effect against Periplaneta americana was determined for Blend 23 (labeled “HL1”) and the composition including Imidacloprid and Blend 23.

Whitefly (on zucchini) = experiment: Interim field plot ratings, South Georgia: whitefly on zucchini; format: in vivo; settings: rate not given; 1 wk after treatment
Drosophila sp. = experiment: Pesticidal effect (KD) against Drosophila sp.; format: in vivo; settings: FIG. 4D; Imidacloprid 50 ppm; Blend 23 2.5%; combination of both
Procedure: Similarly, with reference to FIG. 4D, the pesticidal effect against Drosophila sp. was determined for Blend 23 (labeled “HL1”) and the composition including Imidacloprid and Blend 23.

tyramine receptor (TyrR) [2] = target: T3, tyramine receptor (TyrR) (Drosophila melanogaster, UniProt P22270); experiment: Inhibition binding of 3H-tyramine to membranes of Schneider cells expressing tyramine receptor; settings: compared with tyramine
T3 construct: oligonucleotides that are used to amplify the open reading frame of the Drosophila tyramine receptor (TyrR); expressed in transfected cells
T3 sequence (P22270 27-601): T1 sequence (P22270 27-601)
Procedure: To study the kinetics of the tyramine receptor in stably transfected cells with pAcB-TyrR, crude membrane fractions are prepared from the transfected cells and used to calculate the equilibrium dissociation constant (Kd), Maximum Binding Capacity (Bmax), equilibrium inhibitor dissociation constant (Ki) and EC50 (effective concentration at which binding is inhibited by 50%). A preliminary study to determine the optimum concentration of membrane protein for receptor binding activity is performed. In this study, different concentrations of protein (about 10-50 μg/reaction) are incubated in about 1 ml binding buffer (50 mM Tris, pH 7.4, 5 mM MgCl2 and 2 mM ascorbic acid). The reaction is initiated by the addition of about 5 nM ^3H-tyramine with and without about […] unlabeled tyramine. After about 1 hr incubation at room temperature, reactions are terminated by filtration through GF/C filters (VWR), which have been previously soaked in about 0.3% polyethyleneimine (PEI). The filters are washed one time with about 4 ml ice cold Tris buffer and air dried before the retained radioactivity is measured using LSC. Binding data is analyzed by curve fitting (GraphPad software, Prism). […] Therefore, about 10 μg protein/reaction is used.
as §1

tyramine receptor (TyrR) [3] = target: T3, tyramine receptor (TyrR); experiment: Saturation binding of 3H-tyramine to membranes of Schneider cells expressing tyramine receptor; settings: membranes of cells stably transfected with pAcB-TyrR
Procedure: To study the kinetics of the tyramine receptor in stably transfected cells with pAcB-TyrR, crude membrane fractions are prepared from the transfected cells and used to calculate the equilibrium dissociation constant (Kd), Maximum Binding Capacity (Bmax), equilibrium inhibitor dissociation constant (Ki) and EC50 (effective concentration at which binding is inhibited by 50%). A preliminary study to determine the optimum concentration of membrane protein for receptor binding activity is performed. In this study, different concentrations of protein (about 10-50 μg/reaction) are incubated in about 1 ml binding buffer (50 mM Tris, pH 7.4, 5 mM MgCl2 and 2 mM ascorbic acid). The reaction is initiated by the addition of about 5 nM ^3H-tyramine with and without about […] unlabeled tyramine. After about 1 hr incubation at room temperature, reactions are terminated by filtration through GF/C filters (VWR), which have been previously soaked in about 0.3% polyethyleneimine (PEI). The filters are washed one time with about 4 ml ice cold Tris buffer and air dried before the retained radioactivity is measured using LSC. […]
To determine Bmax and Kd values for tyramine receptor (TyrR) in membranes expressing TyrR, saturation binding experiments are performed. […] Binding data is analyzed by curve fitting (GraphPad software, Prism) and the Kd for tyramine binding to its receptor is determined. […]

[4] = system: Blattella germanica (German cockroaches); experiment: Pesticidal effect against German cockroaches (KD and 100% kill time); format: in vivo
Procedure: With reference to Table 15, the pesticidal effect against Blattella germanica (German cockroaches) was determined for DM, Blend 12, and the composition including DM and Blend 12.
A synergistic effect was shown for the combination treatment that results in an average KD of the insects in 5 sec, and 100% killing of the insects in 17 seconds.

SMILES: NCCc1ccc(O)cc1 [Tyramine (TA), Tyramine]
- % TyrR Binding Inhibition (TyrR): 75%
- response of untransfected cells (tyramine receptor; concentrations as high as about 100 μM): do not respond

SMILES: CCN(CC)C(=O)c1cccc(C)c1 [DEET, N,N-DIETHYL-3-METHYLBENZAMIDE]
- Percent repellency, 0 (Culex quinquefasciatus; 0 hours post-treatment): 40%
- Percent repellency, 1 Hour (Culex quinquefasciatus; 1 hour post-treatment): 20%
- Percent repellency, 2 Hours (Culex quinquefasciatus; 2 hours post-treatment): 10%
- Percent repellency, 4 Hours (Culex quinquefasciatus; 4 hours post-treatment): 5%
- Percent repellency, 6 Hours (Culex quinquefasciatus; 6 hours post-treatment): 0%
- Activity Ratio (repellency at 1 hour) (Culex quinquefasciatus; effect of composition (5% DEET and 95% Blend 9) divided by effect of comparison composition): (1.00)/(0.20) = 5.0
- Synergy Coefficient (repellency at 1 hour) (Culex quinquefasciatus; of composition (5% DEET and 95% Blend 9) relative to comparison composition): 100

SMILES: O=[N+]([O-])NC1=NCCN1Cc1ccc(Cl)nc1 [Imidacloprid, 1-[(6-Chloro-3-pyridinyl)methyl]-N-nitro-2-imidazolidinimine]
- Flower damage (1-5 rating scale; 1 = no damage) [1]: 2.0
- aphids (on cotton) Adults, insect count (aphids (on cotton)): 0.3
- aphids (on cotton) Nymph, insect count (aphids (on cotton)): 1.6
- KD of target insect at 30 seconds post-treatment (Aedes aegypti; FIG. 4C, Imidacloprid 250 ppm, Blend 23 2.5%, combination of both): 20%
- KD of target insect (Aedes aegypti; FIG. 5, Imidacloprid 500 ppm, B5028 5%, combination of both): no KD
- Thrips (on cotton), insect count (Thrips (on cotton)): 9
- mortality 30 minutes post-treatment (Periplaneta americana; FIG. 6B, Imidacloprid alone 0.05%, 0.033%, 0.01%, Imidacloprid 0.033% combined with 5% Blend 23): no mortality
- Whitefly (on zucchini) Adult, insect count (Whitefly (on zucchini)): 16
- Whitefly (on zucchini) Nymph, insect count (Whitefly (on zucchini)): 5
- KD of target insect at 30 seconds post-treatment (Drosophila sp.): 0%

SMILES: NCCc1c[nH]c2ccc(O)cc12 [serotonin, Serotonin]
- efficiency at displacing 3H-tyramine binding (tyramine receptor (TyrR) [2]): less efficient than tyramine

SMILES: NCC(O)c1ccc(O)cc1 (stereo not shown) [Octopamine]
- efficiency at displacing 3H-tyramine binding (tyramine receptor (TyrR) [2]): less efficient than tyramine

SMILES: NCCc1ccc(O)cc1 [Blend 3H-tyramine, ^3H-tyramine]
- concentration at which maximum specific binding occurs (tyramine receptor; whole transfected cells): about 5 nM
- Bmax (tyramine receptor (TyrR) [3]): about 0.679 μmol/mg protein
- Kd (tyramine receptor (TyrR) [3]): ~1.26 nM

SMILES: CC1(C)[C@H](C(=O)O[C@H](C#N)c2cccc(Oc3ccccc3)c2)[C@@H]1C=C(Br)Br [DM, deltamethrin]
- % TyrR Binding Inhibition (TyrR): 10%
- Flower damage (1-5 rating scale; 1 = no damage) [1]: 2.2
- 100% Kill (time) ([4]; Example 4, DM 0.037 mg/cm^2, Blend 12 1.9 mg/cm^2): 15 min
- 100% Kill (time) ([4]; Table 16, DM 0.037 mg/cm^2): 12 min
- aphids (on cotton) Adults, insect count (aphids (on cotton)): 15
- aphids (on cotton) Nymph, insect count (aphids (on cotton)): 26
- Thrips (on cotton), insect count (Thrips (on cotton)): 13
- Whitefly (on zucchini) Adult, insect count (Whitefly (on zucchini)): 18
- Whitefly (on zucchini) Nymph, insect count (Whitefly (on zucchini)): 142

SMILES: NCCc1ccc(O)c(O)c1 [dopamine, Dopamine]
- efficiency at displacing 3H-tyramine binding (tyramine receptor (TyrR) [2]): less efficient than tyramine

SMILES: CN/C(=N\[N+](=O)[O-])NCc1cnc(Cl)s1 [CL, clothianidin]
- KD of target insect (Aedes aegypti; FIG. 4A, CL alone 500 ppm, CL 167 ppm combined with 2.5% Blend 23): no KD
- KD of target insect (Aedes aegypti; FIG. 4B, CL alone 250 ppm, CL 167 ppm combined with 2.5% Blend 23): no KD
- mortality 30 minutes post-treatment (Periplaneta americana; FIG. 6A, CL 0.05%, combination of both): no mortality
